Values of other authors as cited in patent publication US9642862B2, “Methods for treating chronic or unresolvable pain and/or increasing the pain threshold in a subject and pharmaceutical compositions for use therein” (White Mountain Pharma, Inc., priority 2010, dated 2017).

Key:
[1] = tested on: chronic pain subjects; conditions: four subjects, adjunctive to primary opioid therapy, anecdotal
[2] = tested on: female-to-male transsexuals; conditions: doses at or above the male reference range
[3] = tested on: rats; conditions: formalin test, treatment with testosterone
[4] = tested on: ovariectomized female rats

Compound | quality of life [1] | side effects [2] | pain responses [3] | spinal cord enkephalin transcription [4]
C[C@]12CC[C@H]3[C@@H](CCC4=CC(=O)CC[C@@]43C)[C@@H]1CC[C@@H]2O [testosterone] | improved | develop hirsutism and male-like increased risk for cardiovascular disease and diabetes | decreased | –
estrogen | – | – | – | increase
